The values below come from US20250320206A1, “STAT6 DEGRADERS” (Gilead Sciences, Inc., priority 2024, published 2025).

Structures are written as SMILES.

The subject of assay [1] is Eotaxin-3 release in human whole blood stimulated with IL-4. Nature of the assay: Human Whole Blood Eotaxin-3 Assay (IL-4 stimulated eotaxin-3 release). In kind it is cell-based. The settings on record: IL-4 stimulation, 48 h, values given for compounds with >80% Emax, geometric mean. The gist of the method: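 Eotaxin-3 (CCL26) release measured by MSD kit in plasma supernatant after 48 h IL-4 stimulation ([…]) of human whole blood. Compounds added in triplicate 4-fold dilutions 2 h before stimulation; 0.5% DMSO final, 37° C, 5% CO2.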

The target of another assay is T1, STAT6 (Homo sapiens, UniProt P42226).
T1 construct: These cells express endogenous STAT6; host or cells: HeLa LgBiT clone 4.14
T1 sequence (P42226 1-847): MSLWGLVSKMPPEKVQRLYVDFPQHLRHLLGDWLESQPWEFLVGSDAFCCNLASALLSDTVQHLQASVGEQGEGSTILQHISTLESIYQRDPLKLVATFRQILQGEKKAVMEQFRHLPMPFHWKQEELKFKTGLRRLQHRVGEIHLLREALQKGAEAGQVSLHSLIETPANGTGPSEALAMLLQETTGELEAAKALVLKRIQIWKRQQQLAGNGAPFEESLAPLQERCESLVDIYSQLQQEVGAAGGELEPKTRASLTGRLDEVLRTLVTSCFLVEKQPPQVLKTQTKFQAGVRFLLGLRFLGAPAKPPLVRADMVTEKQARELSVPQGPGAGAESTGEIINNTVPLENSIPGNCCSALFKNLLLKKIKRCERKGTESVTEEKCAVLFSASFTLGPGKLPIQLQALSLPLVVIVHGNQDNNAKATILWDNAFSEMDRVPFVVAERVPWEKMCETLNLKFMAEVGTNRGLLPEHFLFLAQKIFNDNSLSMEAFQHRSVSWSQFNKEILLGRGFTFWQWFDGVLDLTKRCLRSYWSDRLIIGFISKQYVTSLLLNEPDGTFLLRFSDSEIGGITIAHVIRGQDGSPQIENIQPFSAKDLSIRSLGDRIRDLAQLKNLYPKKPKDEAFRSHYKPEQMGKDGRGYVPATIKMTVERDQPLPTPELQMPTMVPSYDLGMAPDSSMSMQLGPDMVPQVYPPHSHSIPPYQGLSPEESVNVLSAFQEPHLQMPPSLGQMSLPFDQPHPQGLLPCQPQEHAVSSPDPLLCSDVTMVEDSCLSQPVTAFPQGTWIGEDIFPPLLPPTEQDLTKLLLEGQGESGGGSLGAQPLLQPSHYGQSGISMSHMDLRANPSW
Nature of the assay: Stat6 Degrader Assay (HiBiT based, HeLa LgBiT clone 4.14). The format is cell-based. To be noted: HeLa LgBiT clone 4.14 HiBiT-STAT6, 4-24 h incubation; values given for compounds with >80% Emax; geometric mean; read-out: STAT6 degradation DC50. In a few lines:
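Luminescence from HiBiT-STAT6 complementing stably expressed LgBiT in HeLa clone 4.14 reports remaining STAT6 protein. Cells (5000/well) exposed to compound for 4-24 h at 37° C; read 0.5 h after Nano-Glo addition. 100% degradation window set with 50 μM terfenadine; percent degradation plotted against concentration.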
(In general: With HiBiT, luminescence reflects the tagged protein that the partner subunit can reach.)

In assay [1], `CNc1ccn(-c2ccnc3c2cc([C@H](C)N2CCC(c4ccc(C(=O)N5CCC(CN6CCN(Cc7ccc8c(c7)C(C)(C)C(=O)N8C7CCC(=O)NC7=O)C[C@@H]6C)CC5)cc4)CC2)n3C)c(=O)c1` (stereo partly drawn) [Example 3u187, 3-(3,3-dimethyl-5-(((S)-3-methyl-4-((1-(4-(1-((S)-1-(1-methyl-4-(4-(methylamino)-2-oxopyridin-1 (2H)-yl)-1H-pyrrolo[2,3-b]pyridin-2-yl)ethyl)piperidin-4-yl)benzoyl)piperidin-4-yl)-methyl)piperazin-1-yl)methyl)-2-oxoindolin-1-yl)piperidine-2,6-dione] showed an EC50 of 4.2 nM. Further, the DC50 at STAT6 was 3.1 nM.

`CNc1ccn(-c2ccnc3c2cc([C@H](C)N2CC=C(c4c(C)cc(C(=O)N5CCC(CN6CCN(Cc7cc8c(cc7F)N(C7CCC(=O)NC7=O)C(=O)C87CC7)C[C@@H]6C)CC5)cc4F)CC2)n3C)c(=O)c1` (stereo partly drawn) [Example 3u193, 3-(6′-fluoro-5′-(((S)-4-((1-(3-fluoro-5-methyl-4-(1-((S)-1-(1-methyl-4-(4-(methyl-amino)-2-oxopyridin-1 (2H)-yl)-1H-pyrrolo[2,3-b]pyridin-2-yl)ethyl)-1,2,3,6-tetrahydropyridin-4-yl)benzoyl)piperidin-4-yl)methyl)-3-methylpiperazin-1-yl)methyl)-2′-oxospiro[cyclopropane-1,3′-indolin]-1′-yl)piperidine-2,6-dione] came in with a concentration for a half-maximal effect (EC50) in assay [1] of 2.4 nM. The half-maximal degradation concentration (DC50) at STAT6 is 1.9 nM.

Consider `C[C@H]1CN(Cc2ccc3c(c2)n(C2CC2)c(=O)n3C2CCC(=O)NC2=O)CCN1CC1CCN(C(=O)c2cc(F)c(C3CCN([C@@H](C)c4cc5c(-n6ccc7c(c6=O)CCN7)ccnc5n4C)CC3)c(F)c2)CC1` (stereo partly drawn) [Example 3u196, 3-(3-cyclopropyl-5-(((S)-4-((1-(3,5-difluoro-4-(1-((S)-1-(1-methyl-4-(4-oxo-1,2,3,4-tetrahydro-5H-pyrrolo[3,2-c]pyridin-5-yl)-1H-pyrrolo[2,3-b]pyridin-2-yl)ethyl)piperidin-4-yl)benzoyl)-piperidin-4-yl)methyl)-3-methylpiperazin-1-yl)methyl)-2-oxo-2,3-dihydro-1H-benzo[d]imidazol-1-yl)-piperidine-2,6-dione], for which the EC50 in assay [1] amounted to 0.5 nM. Also, at STAT6, the 50% degradation concentration (DC50) worked out at 0.3 nM.

`CNc1ccn(-c2ccnc3c2cc([C@H](C)N2CCC(c4c(C)cc(C(=O)N5CCC(CN6CCN(Cc7ccc8c(c7)n(C7CC7)c(=O)n8C7CCC(=O)NC7=O)C[C@@H]6C)CC5)cc4F)CC2)n3C)c(=O)c1` (stereo partly drawn) [Example 3u197, 3-(3-cyclopropyl-5-(((S)-4-((1-(3-fluoro-5-methyl-4-(1-((S)-1-(1-methyl-4-(4-(methyl-amino)-2-oxopyridin-1 (2H)-yl)-1H-pyrrolo[2,3-b]pyridin-2-yl)ethyl)piperidin-4-yl)benzoyl)piperidin-4-yl)methyl)-3-methylpiperazin-1-yl)methyl)-2-oxo-2,3-dihydro-1H-benzo[d]imidazol-1-yl)piperidine-2,6-dione] had an EC50 in assay [1] of 2.7 nM. Further, the DC50 on STAT6 amounted to 1.2 nM.

As to `C[C@H]1CN(Cc2cc3c(cc2F)N(C2CCC(=O)NC2=O)C(=O)C3(C)C)CCN1CC1CCN(C(=O)c2cc(F)c(C3=CCN([C@@H](C)c4cc5c(-n6ccc7c(c6=O)CCN7)ccnc5n4C)CC3)c(F)c2)CC1` (stereo partly drawn) [Example 3u200, 3-(5-(((S)-4-((1-(3,5-difluoro-4-(1-((S)-1-(1-methyl-4-(4-oxo-1,2,3,4-tetrahydro-5H-pyrrolo[3,2-c]pyridin-5-yl)-1H-pyrrolo[2,3-b]pyridin-2-yl)ethyl)-1,2,3,6-tetrahydropyridin-4-yl)-benzoyl)piperidin-4-yl)methyl)-3-methylpiperazin-1-yl)methyl)-6-fluoro-3,3-dimethyl-2-oxoindolin-1-yl)piperidine-2,6-dione], the 50% effective concentration (EC50) in assay [1] worked out at 9.9 nM. At STAT6, the DC50 amounted to 2 nM.

Regarding `CNc1ccn(-c2ccnc3c2cc([C@H](C)N2CC=C(c4c(F)cc(C(=O)N5CCC(CN6CCN(Cc7ccc8c(c7)C(C)(C)C(=O)N8C7CCC(=O)NC7=O)C[C@@H]6C)CC5)cc4F)CC2)n3C)c(=O)c1` (stereo partly drawn) [Example 3u201, 3-(5-(((S)-4-((1-(3,5-difluoro-4-(1-((S)-1-(1-methyl-4-(4-(methylamino)-2-oxopyridin-1 (2H)-yl)-1H-pyrrolo[2,3-b]pyridin-2-yl)ethyl)-1,2,3,6-tetrahydropyridin-4-yl)benzoyl)piperidin-4-yl)-methyl)-3-methylpiperazin-1-yl)methyl)-3,3-dimethyl-2-oxoindolin-1-yl)piperidine-2,6-dione], a half-maximal effect in assay [1] (EC50) was put at 3.8 nM. Besides, the DC50 on STAT6 came out at 1.3 nM.

`CNc1ccn(-c2ccnc3c2cc(CN2CCC(c4c(F)cc(C(=O)N5CCC(CN6CCN(Cc7ccc8c(c7)C(C)(C)C(=O)N8C7CCC(=O)NC7=O)C[C@@H]6C)CC5)cc4F)CC2)n3C)c(=O)c1` (stereo partly drawn) [Example 3u204, 3-(5-(((S)-4-((1-(3,5-difluoro-4-(1-((1-methyl-4-(4-(methylamino)-2-oxopyridin-1 (2H)-yl)-1H-pyrrolo[2,3-b]pyridin-2-yl)methyl)piperidin-4-yl)benzoyl)piperidin-4-yl)methyl)-3-methyl-piperazin-1-yl)methyl)-3,3-dimethyl-2-oxoindolin-1-yl)piperidine-2,6-dione]: a half-maximal response in assay [1] (EC50) required 4.6 nM. The DC50 at STAT6 amounted to 2.5 nM.

In turn, `CNc1ccn(-c2ccnc3c2cc([C@H](C)N2CC=C(c4c(C)cc(C(=O)N5CCC(CN6CCN(Cc7cc8c(cc7F)n(C7CCC(=O)NC7=O)c(=O)n8C)C[C@@H]6C)CC5)cc4F)CC2)n3C)c(=O)c1` (stereo partly drawn) [Example 3u207, 3-(6-fluoro-5-(((S)-4-((1-(3-fluoro-5-methyl-4-(1-((S)-1-(1-methyl-4-(4-(methyl-amino)-2-oxopyridin-1 (2H)-yl)-1H-pyrrolo[2,3-b]pyridin-2-yl)ethyl)-1,2,3,6-tetrahydropyridin-4-yl)-benzoyl)piperidin-4-yl)methyl)-3-methylpiperazin-1-yl)methyl)-3-methyl-2-oxo-2,3-dihydro-1H-benzo[d]imidazol-1-yl)piperidine-2,6-dione] had an EC50 in assay [1] of 0.2 nM. The DC50 at STAT6 stood at 0.3 nM.

The compound `CNc1ccn(-c2ccnc3c2cc([C@H](C)N2CC=C(c4c(F)cc(C(=O)N5CCC(CN6CCN(Cc7ccc8c(c7)n(C7CC7)c(=O)n8C7CCC(=O)NC7=O)C[C@@H]6C)CC5)cc4F)CC2)n3C)c(=O)c1` (stereo partly drawn) [Example 3u210, 3-(3-cyclopropyl-5-(((S)-4-((1-(3,5-difluoro-4-(1-((S)-1-(1-methyl-4-(4-(methylamino)-2-oxopyridin-1 (2H)-yl)-1H-pyrrolo[2,3-b]pyridin-2-yl)ethyl)-1,2,3,6-tetrahydropyridin-4-yl)benzoyl)-piperidin-4-yl)methyl)-3-methylpiperazin-1-yl)methyl)-2-oxo-2,3-dihydro-1H-benzo[d]imidazol-1-yl)piperidine-2,6-dione] yielded an EC50 in assay [1] of 1.1 nM. The half-maximal degradation concentration (DC50) on STAT6 was 0.5 nM.

`CNc1cc(=O)n(-c2ccnc3c2cc(CN2CC=C(c4c(F)cc(C(=O)N5CCC(CN6CCN(Cc7ccc8c(c7)n(C7CC7)c(=O)n8C7CCC(=O)NC7=O)C[C@@H]6C)CC5)cc4F)CC2)n3C)cc1F` (stereo partly drawn) [Example 3u213, 3-(3-cyclopropyl-5-(((S)-4-((1-(3,5-difluoro-4-(1-((4-(5-fluoro-4-(methylamino)-2-oxopyridin-1 (2H)-yl)-1-methyl-1H-pyrrolo[2,3-b]pyridin-2-yl)methyl)-1,2,3,6-tetrahydropyridin-4-yl)benzoyl)piperidin-4-yl)methyl)-3-methylpiperazin-1-yl)methyl)-2-oxo-2,3-dihydro-1H-benzo[d]imidazol-1-yl)piperidine-2,6-dione]: the EC50 in assay [1] came to 13.2 nM. Also, the DC50 on STAT6 was found to be 8.6 nM.

Regarding `CNc1ccn(-c2ccnc3c2cc(CN2CCC(c4c(F)cc(C(=O)N5CCC(CN6CCN(Cc7ccc8c(c7)n(C7CC7)c(=O)n8C7CCC(=O)NC7=O)C[C@@H]6C)CC5)cc4F)CC2)n3C)c(=O)c1` (stereo partly drawn) [Example 3u216, 3-(3-cyclopropyl-5-(((S)-4-((1-(3,5-difluoro-4-(1-((1-methyl-4-(4-(methylamino)-2-oxopyridin-1 (2H)-yl)-1H-pyrrolo[2,3-b]pyridin-2-yl)methyl)piperidin-4-yl)benzoyl)piperidin-4-yl)-methyl)-3-methylpiperazin-1-yl)methyl)-2-oxo-2,3-dihydro-1H-benzo[d]imidazol-1-yl)piperidine-2,6-dione], the response in assay [1] was half-maximal at 1.5 nM (EC50). In addition, at STAT6, the DC50 was 3.5 nM.

Usually EC50 stands for the concentration needed to bring the measured effect to its halfway point. What is called DC50 is the midpoint of the concentration-degradation curve.
